Legend:
[1] = Brain slice method, unbound volume of distribution in the brain (rat); type: in vitro ADME; conditions: SD rat brain slices, 5 h incubation at 37°C; mean (standard deviation)
Source text: (§1) Drug-naïve male Sprague–Dawley 250–300 g rats and Naval Medical Research Institute (NMRI) 25–30 g mice were used (Taconic, Lille Skensved, Denmark).
(§2) The composition of artificial cerebrospinal fluid or extracellular fluid (aECF) is crucial. […] Ascorbic acid is used as a natural free-radical scavenger to protect the cell membranes from lipid peroxidation and the brain slices from swelling [21].
(§3) When deciding on the compounds of each cassette, the pKa values of the compounds should be taken into account. Because high concentrations of weak bases can increase the pH of the acidic intracellular compartments, the extent of lysosomal trapping of a weak base could be affected by the existence of another weak base. […] Consequently, it is recommended that the final aECF concentration of each studied compound in the cassette should be 100–200 nM and the total concentration of the studied compounds should not exceed 1 μM [18].
(§4) Drug-naïve rats/mice are anesthetized with inhalation anesthesia using 5% isoflurane. When deep anesthesia is reached, up to 10 ml of blood (rats) is collected intracardially. The animal is then decapitated and the skull quickly opened. The isolated brain is immediately placed into blank ice-cold aECF saturated with oxygen. In our experience, the brains should be sliced within 15–20 minutes of harvesting to retain their viability.
(§5) After discarding the first one or two brain slices, 6 (rat brain) or 10 (mouse brain) consecutive 300 μm brain slices are cut on a coronal plane, starting approximately 1.7 mm anterior to the bregma (rostral striatum).
(§6) The incubation-equilibration process is started by gently transferring the 6 (rat) or 10 (mouse) brain slices from the storage beaker (using a micro double-ended spatula) into one 45 mm high, 80 mm diameter, flat-bottomed glass beaker (Duran Group, VWR, Sweden) containing 15 ml (rat) or 10 ml (mouse) of the aECF containing the selection of drugs to be investigated (Figure 1C). The beaker is then filled with humidified 100% oxygen over the aECF and covered with a custom-fabricated lid (Figure 1D) composed of a Teflon fluorinated ethylene-propylene (FEP) film (50 Å, 12.7 μm thick; DuPont, Katco Ltd, UK) as designed by Potter and DeMarse with minor modifications [23]. A “blank” beaker is also incubated in parallel to check stability of the compounds added into the buffer.
(§7) Finally, the beaker is placed inside the small plastic box in the incubated shaker (e.g. MaxQ4450 Thermo Fisher Scientific, NinoLab, Sweden) for 5 h at 37°C (Figure 1E). Control of the temperature by an external thermometer is recommended. A rotation speed of 45 rpm and oxygen flow of about 75–80 ml per minute through a glass frit apparatus appear sufficient.
(§8) Since the unbound drug concentration in the brain slice interstitial fluid at equilibrium is taken to be equal to the drug concentration in the aECF in the beaker, the presence of any minor debris from the brain tissue should be avoided in the sampled aECF after the 5 h incubation. To achieve this, the beaker needs to sit still for 5 minutes after finishing the incubation before sampling the aECF.

[2] = Brain slice method, unbound volume of distribution in the brain (mouse); conditions: NMRI mouse brain slices, 5 h incubation at 37°C; mean (standard deviation)
Source text: as §1, §2, §3, §4, §5, §6, §7, §8

[3] = cited from earlier work
[4] = cited from earlier work; remark: listed apart in the source
[5] = Unbound brain-to-plasma concentration ratio (Kp,uu,brain), BBB net flux, from Kp,brain, Vu,brain and fu,plasma; conditions: Kp,brain corrected for brain tissue uptake (Vu,brain from brain slice method) and plasma protein binding (fu,plasma)
Source text: It has been proposed by Fridén et al. that in vitro determination of Vu,brain in combination with in vivo determination of the total brain-to-plasma concentration ratio (Kp,brain) and in vitro determination of the fraction of unbound drug in plasma (fu,plasma) would allow rapid evaluation of unbound brain-to-plasma concentration ratio (Kp,uu,brain) (Figure 2). Moreover, combining Vu,brain with fu,brain would allow estimation of the unbound intracellular-to-extracellular concentration ratio (Kp,uu,cell). It is essential to emphasize that, in terms of predicting Cu,brainISF or Kp,uu,brain, rank ordering of compounds with respect to Vu,brain is futile, since there is no causal relationship.
Complex evaluation of the abovementioned neuropharmacokinetic parameters gives insight to drug distribution in the brain. For instance, analogue of γ-aminobutyric acid gabapentin has Kp,brain equal to 0.64 [26]. However, after correction of Kp,brain for brain tissue uptake (using Vu,brain derived from the brain slice method) and plasma protein binding (using fu,plasma) the BBB net flux was estimated as a 0.14 meaning that only 14% of unbound drug in plasma is passing the BBB. Moreover, after passing BBB gabapentin (substrate to the large neutral amino acid transporter) tends to accumulate in the cells as it could be judged from Kp,uu,cell equal to 4.55 [6].

Structure (SMILES) | Vu,brain [1] | Vu,brain [2] | Kp,uu,cell (unbound intracellular-to-extracellular concentration ratio) [3] | Kp,brain (total brain-to-plasma concentration ratio) [4] | Kp uu [5]
CC(=O)O[C@@]12CO[C@@H]1C[C@H](O)[C@@]1(C)C(=O)[C@H](O)C3=C(C)[C@@H](OC(=O)[C@H](O)[C@@H](NC(=O)OC(C)(C)C)c4ccccc4)C[C@@](O)([C@@H](OC(=O)c4ccccc4)[C@H]21)C3(C)C [Docetaxel] | 777 (217) ml·g brain^-1 | 796 (177) ml·g brain^-1 |  |  | 
NCC1(CC(=O)O)CCCCC1 [Gabapentin] | 4.49 (0.29) ml·g brain^-1 | 4.22 (0.93) ml·g brain^-1 | 4.55 | 0.64 | 0.14
COc1ccc2c(c1)c(CC(=O)O)c(C)n2C(=O)c1ccc(Cl)cc1 [Indomethacin] | 14.1 (1.8) ml·g brain^-1 | 12.0 (1.8) ml·g brain^-1 |  |  | 
Fc1ccc([C@@H]2CCNC[C@H]2COc2ccc3c(c2)OCO3)cc1 [Paroxetine] | 714 (72) ml·g brain^-1 | 596 (97) ml·g brain^-1 |  |  | 
CSc1ccc2c(c1)N(CCC1CCCCN1C)c1ccccc1S2 (stereo not shown) [Thioridazine] | 2650 (232) ml·g brain^-1 | 1930 (170) ml·g brain^-1 |  |  | 
